Here are results for four compounds from US10961236B2, “(S)-2-(1-cyclopropylethyl)-5-(4-methyl-2-((6-(2-oxopyrrolidin-1-yl)pyridin-2-yl)amino) thiazol-5-yl)-7-(methylsulfonyl)isoindolin-1-one as a phosphatidylinositol 3-kinase inhibitor” (AstraZeneca AB, priority 2016, dated 2021).

SMILES strings stand for the structures.

Common to all, as to format: biochemical
Assay [1] addresses recombinant human PI3Kγ ((aa144-1102)-6His) (Homo sapiens (Human), UniProt P48736). Put plainly: Enzymatic activity assay for recombinant human PI3Kγ (ADP-Glo). The note with it: 1.2 nM PI3Kγ, 20 μM ATP, 80 μM DiC8-PIP2, ADP-Glo. In short, it runs like this: (§1)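 ADP-Glo luminescence after DiC8-PIP2 (80 μM) phosphorylation with 20 μM ATP in 50 mM Tris pH 7.4, 3 mM MgCl2, 2.1 mM DTT, 0.05% CHAPS at room temperature. Enzyme 1.2 nM PI3Kγ or 0.6 nM PI3Kδ; inhibitors pre-incubated 15 min, then 60 min reaction.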

Assay [2] concerns the target recombinant human PI3Kα (6-His(p110-p85α)) (Homo sapiens (Human), UniProt P42336). Put plainly: Enzymatic activity assay for recombinant human PI3Kα (ADP-Glo). To be noted: 1.2 nM PI3Kα, 20 μM ATP, 80 μM DiC8-PIP2, ADP-Glo. The gist of the method: (§2)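 ADP-Glo luminescence after DiC8-PIP2 phosphorylation at RT: 80 μM lipid substrate, 20 μM ATP, 1.2 nM enzyme (0.6 nM for δ) in Tris pH 7.4 with MgCl2, DTT, CHAPS. Compounds pre-incubated 15 min with enzyme, then 60 min reaction; DMSO ≤1%.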
For orientation: ADP-Glo turns the ADP formed in a reaction into a luminescent signal.

For assay [3], the target named is recombinant human PI3Kδ (6-His(p110-p85α)) (Homo sapiens (Human), UniProt O00329). Put plainly: Enzymatic activity assay for recombinant human PI3Kδ (ADP-Glo). The note with it: 0.6 nM PI3Kδ, 20 μM ATP, 80 μM DiC8-PIP2, ADP-Glo. In short, it runs like this:
as §1

In assay [4] the target is recombinant human PI3Kβ (6-His(p110-p85α)) (Homo sapiens (Human), UniProt P42338). Put plainly: Enzymatic activity assay for recombinant human PI3Kβ (ADP-Glo). The note with it: 1.2 nM PI3Kβ, 20 μM ATP, 80 μM DiC8-PIP2, ADP-Glo. In short, it runs like this: as §2
recombinant human PI3Kβ (6-His(p110-p85α)), sequence (P42338 whole entry): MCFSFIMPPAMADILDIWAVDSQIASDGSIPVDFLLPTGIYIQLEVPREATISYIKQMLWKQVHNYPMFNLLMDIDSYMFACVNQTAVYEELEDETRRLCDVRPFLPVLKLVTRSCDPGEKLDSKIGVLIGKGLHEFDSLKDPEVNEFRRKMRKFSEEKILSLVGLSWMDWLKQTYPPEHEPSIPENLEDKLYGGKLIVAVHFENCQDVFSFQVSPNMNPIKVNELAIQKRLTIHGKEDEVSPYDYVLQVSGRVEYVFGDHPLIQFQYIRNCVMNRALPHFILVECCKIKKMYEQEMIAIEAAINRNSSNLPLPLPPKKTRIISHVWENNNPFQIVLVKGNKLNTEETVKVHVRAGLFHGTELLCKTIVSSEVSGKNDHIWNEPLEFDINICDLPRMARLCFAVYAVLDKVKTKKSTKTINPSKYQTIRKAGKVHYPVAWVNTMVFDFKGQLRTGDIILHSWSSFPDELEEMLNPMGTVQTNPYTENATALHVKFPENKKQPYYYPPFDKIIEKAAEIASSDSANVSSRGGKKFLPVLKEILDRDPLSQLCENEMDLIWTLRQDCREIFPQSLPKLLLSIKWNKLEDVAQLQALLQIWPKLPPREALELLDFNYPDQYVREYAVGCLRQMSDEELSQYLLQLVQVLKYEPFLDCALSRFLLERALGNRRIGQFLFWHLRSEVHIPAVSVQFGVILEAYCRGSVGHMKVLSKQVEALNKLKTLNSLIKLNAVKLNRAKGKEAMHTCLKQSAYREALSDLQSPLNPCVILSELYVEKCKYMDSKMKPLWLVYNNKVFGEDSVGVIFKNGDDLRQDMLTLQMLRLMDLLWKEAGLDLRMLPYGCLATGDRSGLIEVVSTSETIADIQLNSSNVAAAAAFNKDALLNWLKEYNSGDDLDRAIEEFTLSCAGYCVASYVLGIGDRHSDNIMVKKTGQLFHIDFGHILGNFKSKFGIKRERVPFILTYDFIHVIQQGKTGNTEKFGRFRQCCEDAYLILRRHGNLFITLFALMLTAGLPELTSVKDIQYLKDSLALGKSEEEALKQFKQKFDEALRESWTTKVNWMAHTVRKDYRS
recombinant human PI3Kβ (6-His(p110-p85α)), sequence (P27986 whole entry partner): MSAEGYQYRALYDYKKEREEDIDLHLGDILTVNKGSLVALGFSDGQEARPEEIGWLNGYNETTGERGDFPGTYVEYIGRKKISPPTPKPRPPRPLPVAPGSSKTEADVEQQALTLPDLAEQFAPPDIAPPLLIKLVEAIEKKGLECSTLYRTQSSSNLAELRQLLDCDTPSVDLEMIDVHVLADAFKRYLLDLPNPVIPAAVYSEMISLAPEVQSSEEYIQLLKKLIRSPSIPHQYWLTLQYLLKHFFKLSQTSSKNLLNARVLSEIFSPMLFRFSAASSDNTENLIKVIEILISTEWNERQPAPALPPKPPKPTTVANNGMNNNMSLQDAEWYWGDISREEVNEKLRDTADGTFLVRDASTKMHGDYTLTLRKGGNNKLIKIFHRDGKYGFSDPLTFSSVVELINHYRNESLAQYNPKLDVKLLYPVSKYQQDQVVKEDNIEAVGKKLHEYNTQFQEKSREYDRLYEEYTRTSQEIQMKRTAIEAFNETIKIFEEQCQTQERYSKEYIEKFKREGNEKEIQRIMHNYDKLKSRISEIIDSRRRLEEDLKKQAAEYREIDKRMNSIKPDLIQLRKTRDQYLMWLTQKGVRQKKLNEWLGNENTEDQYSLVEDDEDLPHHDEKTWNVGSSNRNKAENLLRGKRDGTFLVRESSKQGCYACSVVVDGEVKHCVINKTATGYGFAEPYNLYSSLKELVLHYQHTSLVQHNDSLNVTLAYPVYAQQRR

recombinant human PI3Kγ ((aa144-1102)-6His), sequence (P48736 144-1102): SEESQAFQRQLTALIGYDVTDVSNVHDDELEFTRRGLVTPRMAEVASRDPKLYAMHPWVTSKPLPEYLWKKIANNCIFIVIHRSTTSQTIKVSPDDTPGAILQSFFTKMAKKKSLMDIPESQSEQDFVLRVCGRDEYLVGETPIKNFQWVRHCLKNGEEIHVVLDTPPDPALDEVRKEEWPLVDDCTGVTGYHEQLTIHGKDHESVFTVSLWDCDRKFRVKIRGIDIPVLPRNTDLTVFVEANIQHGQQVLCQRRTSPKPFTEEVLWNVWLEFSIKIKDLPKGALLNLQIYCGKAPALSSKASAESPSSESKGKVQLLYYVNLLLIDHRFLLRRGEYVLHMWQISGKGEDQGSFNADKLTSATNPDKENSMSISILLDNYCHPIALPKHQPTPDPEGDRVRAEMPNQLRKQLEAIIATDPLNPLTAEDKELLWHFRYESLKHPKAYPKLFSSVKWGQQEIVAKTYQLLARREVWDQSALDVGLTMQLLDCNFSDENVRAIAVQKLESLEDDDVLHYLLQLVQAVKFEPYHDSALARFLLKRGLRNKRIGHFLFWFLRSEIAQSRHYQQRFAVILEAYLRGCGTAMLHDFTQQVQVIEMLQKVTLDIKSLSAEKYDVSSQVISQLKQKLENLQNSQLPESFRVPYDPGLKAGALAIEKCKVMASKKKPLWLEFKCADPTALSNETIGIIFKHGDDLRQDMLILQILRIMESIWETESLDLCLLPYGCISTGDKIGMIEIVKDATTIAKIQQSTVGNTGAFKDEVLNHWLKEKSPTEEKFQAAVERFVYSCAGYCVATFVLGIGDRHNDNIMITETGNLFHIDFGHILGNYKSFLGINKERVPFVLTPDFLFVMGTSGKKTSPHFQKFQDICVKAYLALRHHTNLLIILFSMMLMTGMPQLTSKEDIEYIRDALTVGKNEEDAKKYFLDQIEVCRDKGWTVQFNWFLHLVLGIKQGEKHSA
recombinant human PI3Kα (6-His(p110-p85α)), sequence (P42336 whole entry): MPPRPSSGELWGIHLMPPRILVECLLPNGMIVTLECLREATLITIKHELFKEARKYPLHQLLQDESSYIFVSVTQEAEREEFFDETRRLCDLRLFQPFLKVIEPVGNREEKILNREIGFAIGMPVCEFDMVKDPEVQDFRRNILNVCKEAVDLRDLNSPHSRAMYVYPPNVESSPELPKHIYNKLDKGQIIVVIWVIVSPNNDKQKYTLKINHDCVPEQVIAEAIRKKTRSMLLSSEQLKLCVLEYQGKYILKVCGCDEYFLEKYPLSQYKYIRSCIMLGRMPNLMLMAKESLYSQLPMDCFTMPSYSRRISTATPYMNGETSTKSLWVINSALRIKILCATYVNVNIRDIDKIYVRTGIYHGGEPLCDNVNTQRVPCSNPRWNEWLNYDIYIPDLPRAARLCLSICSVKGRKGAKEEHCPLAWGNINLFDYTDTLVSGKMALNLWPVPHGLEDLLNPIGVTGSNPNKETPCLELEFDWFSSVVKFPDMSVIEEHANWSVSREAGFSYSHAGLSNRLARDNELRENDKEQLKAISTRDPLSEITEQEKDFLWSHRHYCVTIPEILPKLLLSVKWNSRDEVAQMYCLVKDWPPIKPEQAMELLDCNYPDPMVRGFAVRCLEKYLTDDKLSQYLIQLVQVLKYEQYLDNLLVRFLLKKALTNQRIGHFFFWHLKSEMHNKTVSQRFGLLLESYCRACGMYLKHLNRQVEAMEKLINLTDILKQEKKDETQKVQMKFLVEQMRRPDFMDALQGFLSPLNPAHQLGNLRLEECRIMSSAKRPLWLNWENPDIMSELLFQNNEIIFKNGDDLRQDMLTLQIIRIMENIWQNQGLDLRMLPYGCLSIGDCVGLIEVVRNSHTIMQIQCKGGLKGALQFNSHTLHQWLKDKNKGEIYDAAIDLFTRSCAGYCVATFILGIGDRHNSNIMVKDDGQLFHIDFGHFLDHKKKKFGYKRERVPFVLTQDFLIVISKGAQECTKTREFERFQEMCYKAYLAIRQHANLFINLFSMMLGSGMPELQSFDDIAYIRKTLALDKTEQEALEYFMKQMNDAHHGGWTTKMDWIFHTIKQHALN
recombinant human PI3Kα (6-His(p110-p85α)), sequence (P27986 whole entry partner): as the sequence (P27986 whole entry partner) above
recombinant human PI3Kδ (6-His(p110-p85α)), sequence (O00329 whole entry): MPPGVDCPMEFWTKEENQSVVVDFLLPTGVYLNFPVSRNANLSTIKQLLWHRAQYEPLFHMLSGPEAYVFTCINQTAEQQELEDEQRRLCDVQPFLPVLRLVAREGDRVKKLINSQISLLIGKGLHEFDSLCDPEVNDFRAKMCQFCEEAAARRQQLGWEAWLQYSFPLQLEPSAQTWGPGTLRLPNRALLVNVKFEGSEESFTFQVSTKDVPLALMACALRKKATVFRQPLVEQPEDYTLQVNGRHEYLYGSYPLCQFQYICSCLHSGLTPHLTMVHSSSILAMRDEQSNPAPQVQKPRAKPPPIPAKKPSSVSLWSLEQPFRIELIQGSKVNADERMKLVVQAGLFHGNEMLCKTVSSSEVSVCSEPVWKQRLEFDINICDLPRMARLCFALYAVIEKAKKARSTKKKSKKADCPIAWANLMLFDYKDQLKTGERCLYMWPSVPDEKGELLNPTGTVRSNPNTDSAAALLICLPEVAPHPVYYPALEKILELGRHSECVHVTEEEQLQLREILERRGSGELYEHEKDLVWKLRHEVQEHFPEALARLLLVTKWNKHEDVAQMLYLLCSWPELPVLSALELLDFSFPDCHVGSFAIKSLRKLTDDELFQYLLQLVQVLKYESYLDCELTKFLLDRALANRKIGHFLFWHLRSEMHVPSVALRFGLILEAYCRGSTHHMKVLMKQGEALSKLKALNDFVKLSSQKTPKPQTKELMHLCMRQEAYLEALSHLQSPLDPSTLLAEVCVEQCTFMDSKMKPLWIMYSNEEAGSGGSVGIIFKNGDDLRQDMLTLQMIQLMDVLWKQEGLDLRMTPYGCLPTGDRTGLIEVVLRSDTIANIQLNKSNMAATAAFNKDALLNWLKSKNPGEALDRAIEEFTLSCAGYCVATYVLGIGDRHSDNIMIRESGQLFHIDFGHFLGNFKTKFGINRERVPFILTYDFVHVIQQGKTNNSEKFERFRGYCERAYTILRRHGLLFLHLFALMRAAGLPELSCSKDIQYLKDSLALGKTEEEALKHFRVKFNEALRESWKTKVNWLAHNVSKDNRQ
recombinant human PI3Kδ (6-His(p110-p85α)), sequence (P27986 whole entry partner): as the sequence (P27986 whole entry partner) above

Turning to `CCNS(=O)(=O)c1cc(-c2sc(Nc3cccc(N4CCOCC4=O)n3)nc2C)cc2c1C(=O)N([C@@H](C)C(F)(F)F)C2` [Example 27, N-Ethyl-6-(4-methyl-2-{[6-(3-oxomorpholin-4-yl)pyridin-2-yl]amino}-1,3-thiazol-5-yl)-3-oxo-2-[(2S)-1,1,1-trifluoropropan-2-yl]-2,3-dihydro-1H-isoindole-4-sulfonamide], the IC50 in assay [1] came to 0.9 nM; in assay [2], 65 nM; in assay [3], 0.7 nM; in assay [4], 178 nM.
For `CNS(=O)(=O)c1cc(-c2sc(Nc3cccc(N4C(=O)CC[C@H]4CO)n3)nc2C)cc2c1C(=O)N([C@@H](C)C1CC1)C2` [Example 57, 2-[(1S)-1-Cyclopropylethyl]-6-[2-({6-[(2S)-2-(hydroxymethyl)-5-oxopyrrolidin-1-yl]pyridin-2-yl}amino)-4-methyl-1,3-thiazol-5-yl]-N-methyl-3-oxo-2,3-dihydro-1H-isoindole-4-sulfonamide], in that order: 1.2 nM, 11 nM, 0.7 nM and 85 nM.
For `CNS(=O)(=O)c1cc(-c2sc(Nc3cccc(N4CCNC(C)(C)C4=O)n3)nc2C)cc2c1C(=O)N([C@@H](C)C1CC1)C2` [Example 47, 2-[(1S)-1-Cyclopropylethyl]-6-(2-{[6-(3,3-dimethyl-2-oxopiperazin-1-yl)pyridin-2-yl]amino}-4-methyl-1,3-thiazol-5-yl)-N-methyl-3-oxo-2,3-dihydro-1H-isoindole-4-sulfonamide], in that order: 1.3 nM, 97 nM, 4.4 nM and 824 nM.
Consider `Cc1nc(Nc2cccc(N3CCCOC3=O)n2)sc1-c1cc2c(c(S(C)(=O)=O)c1)C(=O)N([C@@H](C)C1CC1)C2` [Example 8, 2-[(1S)-1-Cyclopropylethyl]-5-(4-methyl-2-{[6-(2-oxo-1,3-oxazinan-3-yl)pyridin-2-yl]amino}-1,3-thiazol-5-yl)-7-(methylsulfonyl)-2,3-dihydro-1H-isoindol-1-one], for which the IC50 in assay [1] turned out to be 1.3 nM; in assay [2] it was 23 nM; in assay [3], 1.2 nM; in assay [4], 324 nM.

One may read the IC50 as the point on the concentration scale where inhibition reaches its midpoint.
